{"source": "patent US12428412B2", "about": "(DANA-FARBER CANCER INSTITUTE, INC., priority 2018, dated 2025)", "key": {"[1]": {"test": "Tolerability in human CRBN knock in mice", "assay_type": "in vivo", "protocol": "(§1) CPD 1 was tested in mice for maximum tolerated dose (MTD) (FIG. 6A). The mice were treated with 10 mg/kg (mpk), 20 mpk, and 40 mpk with 4 mice in each group. The compound was also tested in human CRBN knock in mice, the blood samples were collected after 21 day treatment. All the tested blood samples were normal."}, "EP300 [2]": {"target": "T1, EP300 (Homo sapiens, UniProt Q09472)", "T1 construct": "Whole cell lysates were collected using ice cold lysis buffer; endogenous in cells; host or cells: Kelly neuroblastoma cells (incl. Ch2.2, LACZ and CRBN knockout lines)", "T1 sequence (Q09472 whole entry)": "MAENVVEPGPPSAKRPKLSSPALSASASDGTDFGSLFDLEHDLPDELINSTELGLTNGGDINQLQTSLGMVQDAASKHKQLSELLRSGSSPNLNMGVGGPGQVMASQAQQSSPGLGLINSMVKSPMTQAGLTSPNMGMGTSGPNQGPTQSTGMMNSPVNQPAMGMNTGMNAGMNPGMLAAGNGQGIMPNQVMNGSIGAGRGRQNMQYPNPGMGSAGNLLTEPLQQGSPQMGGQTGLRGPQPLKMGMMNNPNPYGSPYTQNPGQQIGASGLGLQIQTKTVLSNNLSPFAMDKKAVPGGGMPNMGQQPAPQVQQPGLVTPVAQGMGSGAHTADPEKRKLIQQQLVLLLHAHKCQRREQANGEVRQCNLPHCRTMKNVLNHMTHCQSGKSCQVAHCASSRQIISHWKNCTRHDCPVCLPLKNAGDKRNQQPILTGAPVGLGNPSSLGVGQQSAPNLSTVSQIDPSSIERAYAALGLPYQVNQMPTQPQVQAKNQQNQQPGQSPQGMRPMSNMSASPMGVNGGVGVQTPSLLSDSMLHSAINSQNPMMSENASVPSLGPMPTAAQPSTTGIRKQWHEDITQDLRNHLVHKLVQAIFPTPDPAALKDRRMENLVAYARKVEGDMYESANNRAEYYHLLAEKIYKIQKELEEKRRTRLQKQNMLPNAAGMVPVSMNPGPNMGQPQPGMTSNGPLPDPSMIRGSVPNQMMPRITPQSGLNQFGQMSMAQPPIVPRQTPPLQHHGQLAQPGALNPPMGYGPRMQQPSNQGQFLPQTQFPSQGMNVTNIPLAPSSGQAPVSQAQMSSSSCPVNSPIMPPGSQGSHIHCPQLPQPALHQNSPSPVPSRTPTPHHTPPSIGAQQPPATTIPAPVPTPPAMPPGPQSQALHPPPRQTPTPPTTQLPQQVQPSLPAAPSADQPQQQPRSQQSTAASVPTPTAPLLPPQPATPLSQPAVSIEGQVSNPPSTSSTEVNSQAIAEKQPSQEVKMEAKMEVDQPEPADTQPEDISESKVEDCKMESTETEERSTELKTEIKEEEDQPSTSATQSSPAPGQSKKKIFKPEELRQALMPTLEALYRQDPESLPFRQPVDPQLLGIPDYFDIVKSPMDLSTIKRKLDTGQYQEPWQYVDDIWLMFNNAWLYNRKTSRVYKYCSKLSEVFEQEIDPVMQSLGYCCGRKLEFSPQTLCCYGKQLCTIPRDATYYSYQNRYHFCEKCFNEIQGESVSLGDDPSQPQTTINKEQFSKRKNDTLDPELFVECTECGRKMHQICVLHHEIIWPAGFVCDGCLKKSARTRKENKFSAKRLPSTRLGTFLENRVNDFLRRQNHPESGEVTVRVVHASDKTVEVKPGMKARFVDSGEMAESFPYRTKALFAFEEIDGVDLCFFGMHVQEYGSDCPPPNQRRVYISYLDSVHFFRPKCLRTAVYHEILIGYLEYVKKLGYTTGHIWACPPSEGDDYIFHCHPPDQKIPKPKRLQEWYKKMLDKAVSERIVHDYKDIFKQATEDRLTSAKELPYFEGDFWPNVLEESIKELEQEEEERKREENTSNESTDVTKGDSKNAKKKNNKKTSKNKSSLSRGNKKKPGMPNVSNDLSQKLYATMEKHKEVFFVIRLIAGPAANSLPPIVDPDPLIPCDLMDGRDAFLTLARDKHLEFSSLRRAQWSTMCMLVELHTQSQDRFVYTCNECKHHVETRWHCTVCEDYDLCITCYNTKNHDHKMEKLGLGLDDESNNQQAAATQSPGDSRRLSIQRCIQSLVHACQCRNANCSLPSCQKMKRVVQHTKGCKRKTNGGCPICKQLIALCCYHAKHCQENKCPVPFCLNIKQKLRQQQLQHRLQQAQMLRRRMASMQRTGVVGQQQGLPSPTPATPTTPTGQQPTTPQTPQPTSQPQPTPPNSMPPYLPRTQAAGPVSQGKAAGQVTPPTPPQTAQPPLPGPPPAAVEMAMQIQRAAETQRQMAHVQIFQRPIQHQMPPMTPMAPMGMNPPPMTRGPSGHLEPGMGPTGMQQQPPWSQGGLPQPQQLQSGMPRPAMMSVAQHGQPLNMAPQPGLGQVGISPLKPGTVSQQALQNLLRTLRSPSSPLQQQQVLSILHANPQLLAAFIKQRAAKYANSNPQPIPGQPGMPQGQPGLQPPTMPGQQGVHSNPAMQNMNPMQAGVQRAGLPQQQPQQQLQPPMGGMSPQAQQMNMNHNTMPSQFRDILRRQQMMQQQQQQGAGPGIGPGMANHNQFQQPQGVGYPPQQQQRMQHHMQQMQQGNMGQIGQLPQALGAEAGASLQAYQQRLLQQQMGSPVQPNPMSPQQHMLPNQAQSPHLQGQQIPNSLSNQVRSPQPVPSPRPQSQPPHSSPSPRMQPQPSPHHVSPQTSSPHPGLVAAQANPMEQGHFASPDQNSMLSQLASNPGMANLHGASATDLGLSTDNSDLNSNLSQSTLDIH", "test": "Cellular degradation assay (immunoblot) in Kelly NB cells, EP300", "assay_type": "cell-based", "details": "dose or time dependent", "protocol": "Kelly Neuroblastoma cells were seeded at 1,000,000 cells per well in 6 well plates and were treated in a dose-dependent manner for 24 to 72 hours. Whole cell lysates were collected using ice cold lysis buffer [300 mM NaCl, 50 mM Tris-HCl, pH 7.5, 0.5% Triton X-100, 1% SDS, 1 mM dithiothreitol (DTT), Roche® protease inhibitor cocktail (1:000), 25 units/mL Benzonase] and blotted at a protein concentration of 20 μg. Histone extraction was performed using the EpiQuik™ Total Histone Extraction Kit (OP-0006-100, Epigentek) and blotted at a protein concentration of 4 μg.\nWhole cell lysates were resolved in NuPAGE® 3-8% Tris-Acetate polyacrylamide gels (EA03785BOX, Invitrogen™) and histone extraction lysates in Bolt 4-12% Bis-Tris polyacrylamide gels (NWO4125BOX, Invitrogen™). Afterwards, gels were transferred to nitrocellulose membranes (LC2001, Invitrogen™). […]\nThe experimental protocol is the same as in Example 24. The protein level was determined by immunoblot using EP300 antibody, CBP antibody or H3K27ac antibody. […]"}, "[3]": {"test": "Maximum tolerated dose (MTD) study in mice", "assay_type": "in vivo", "details": "mice, 10, 20 and 40 mg/kg", "protocol": "as §1"}, "Kelly cells": {"tested_on": "Kelly cells", "test": "ATPlite cell growth inhibition assay, Kelly cell lines treated 72 hours", "assay_type": "cell-based", "protocol": "Compounds CPD 1 to CPD 22 were tested via ATPlite™ assay (ATPlite™ 1000 assay kit, PerkinElmer®, USA) using standard protocol. […] The signal is normalized to DMSO treated cells."}, "EP300 [4]": {"target": "T1, EP300", "test": "Immunoblot in CRBN knockout Kelly cell lines, EP300", "assay_type": "cell-based", "details": "CRBN-1 and CRBN-3 Kelly lines, 500 nM", "protocol": "CPD 1 was tested in CRBN knockout (k/o) Kelly cell lines. The experimental protocol is the same as in Example 24."}}, "note": "Entries after “also recorded” stand apart in the source; their conditions may differ.", "data": [{"smiles": "C[C@H](N(Cc1ccc(F)cc1)C(=O)CN1C(=O)O[C@@]2(CCc3cc(NC(=O)CCCCCCCCCCCNc4ccc5c(c4)C(=O)N(C4CCC(=O)NC4=O)C5=O)ccc32)C1=O)C(F)(F)F", "note": "(stereo partly drawn) [CPD 1, 12-((2-(2,6-dioxopiperidin-3-yl)-1,3-dioxoisoindolin-5-yl)amino)-N—((R)-3′-(2-((4-fluorobenzyl)((S)-1,1,1-trifluoropropan-2-yl)amino)-2-oxoethyl)-2′,4′-dioxo-2,3-dihydrospiro[indene-1,5′-oxazolidin]-5-yl)dodecanamide]", "values": [{"measurement": "blood samples", "setting": "[1]; human CRBN knock in mice, after 21 day treatment", "result": "normal"}, {"measurement": "toxicity", "setting": "[1]; humanized CRBN mice", "result": "no toxicity was observed"}, {"measurement": "EP300 degradation", "setting": "EP300 [2]", "result": "selective degradation of EP300; also recorded: clear degradation of EP300"}, {"measurement": "body weight loss", "setting": "[3]", "result": "no weight loss was observed"}, {"measurement": "tolerability", "setting": "[3]", "result": "well tolerated"}, {"measurement": "Kelly NB cell growth inhibition", "setting": "Kelly cells; 72 hours, ATPlite, normalized to DMSO", "result": "outperformed positive control A485; also recorded: Cell growth inhibition was observed; also recorded: much higher potency compared to inhibitor alone"}, {"measurement": "IC50", "setting": "Kelly cells; ND: not detected", "result": 0.166, "unit": "µM"}, {"measurement": "EP300 degradation in CRBN k/o lines", "setting": "EP300 [4]", "result": "did not degrade"}]}]}
